Measurements: patent US9592223B2, “Small molecule inhibitors of MALT1” (Cornell University, priority 2012, dated 2017)
Like-named read-outs stand apart in the source and are kept apart here.

Assays:
[1] = system: ABC-DLBCL cell lines HBL-1 and TMD8 vs GCB-DLBCL cell line OCI-Ly1; test: Cell proliferation of selected hits and analogs, ATP-based metabolic luminescent assay; set-up: species or system human
Text: MALT1 activity plays an important role in selectively maintaining proliferation of ABC-DLBCL cell lines (Ngo et al., 2006). Accordingly ABC and GCB-DLBCL cell lines present differential sensitivity to MALT1 cleavage inhibition by the peptide Z-VRPR-FMK (Ferch et al., 2009; Hailfinger et al., 2009; Rebeaud et al., 2008). To determine whether candidate small molecules display a similar profile two ABC-DLBCL cell lines, HBL-1 and TMD8, and one GCB-DLBCL cell line, OCI-Ly1, were exposed to increasing concentrations of the nineteen selected molecules. Cell proliferation was measured 48 hr after exposure to a single dose of compound using an ATP-based metabolic luminescent assay (summarized in FIG. 1C).
(§1) A total of 704 analog compounds from available libraries with similarity score ≧70% (Tanimoto similarity functions) were screened by LZ-MALT1 fluorescence assay.
Cell proliferation was determined by ATP quantification using a luminescent method (CellTiter-Glo, Promega, Madison, Wis.) and Trypan blue dye-exclusion (Sigma, St. Louis, Mo.). […]
DLBCL cell lines were grown in exponential growth conditions during the 48 hr of treatment. Cell proliferation was determined by ATP quantification using a luminescent method (CellTiter-Glo, Promega, Madison, Wis.) and Trypan blue dye-exclusion (Sigma, St. Louis, Mo.). […]

[2] = system: TMD8 cells; test: Growth inhibition, ATP-based luminescent assay; assay type: cell-based; conditions: Homo sapiens
Experimental: Cell proliferation was determined by ATP quantification using a luminescent method (CellTiter-Glo, Promega, Madison, Wis.) and Trypan blue dye-exclusion (Sigma, St. Louis, Mo.). Cell viability in drug-treated cells was normalized to their respective controls (fractional viability) and results are given as 1-fractional viability. CompuSyn software (Biosoft, Cambridge, UK) was used to determine drug concentrations inhibiting fractional growth compared to controls.
DLBCL cell lines were grown in exponential growth conditions during the 48 hr of treatment. Cell proliferation was determined by ATP quantification using a luminescent method (CellTiter-Glo, Promega, Madison, Wis.) and Trypan blue dye-exclusion (Sigma, St. Louis, Mo.). Luminescence was measured using the Synergy4 microplate reader (BioTek Instruments, Winooski, Vt.). Standard curves for each cell line were calculated by plotting the cell number (determined by the Trypan blue method) against their luminescence values and number of cells was calculated accordingly. Cell viability in drug-treated cells was normalized to their respective controls (fractional viability) and results are given as 1-fractional viability. […] Experiments were performed in triplicate.

[3] = system: MALT1-mediated cleavage of CYLD; test: MALT1-mediated cleavage of CYLD in HBL-1 cells, Western blotting and densitometry; assay type: cell-based, human
Experimental: as §1
Equal amounts of total protein (20-75 μg) were separated on sodium dodecyl sulfate-polyacrylamide gel electrophoresis (SDS-PAGE), and electrotransferred onto nitrocellulose membranes. Membranes were incubated with primary antibodies (MALT1, BCL-10, CYLD from Santa Cruz Biotechnologies, Santa Cruz, Calif.; A20 from eBioscience, San Diego, Calif.; phospho-IκB-α, IκB-α, c-REL, RELB from Cell Signaling, Danvers, Mass. and α-Tubulin from Sigma), followed by secondary antibodies conjugated to horseradish peroxidase, which were detected by chemiluminescence (Pierce, Thermo Scientific, Rockford, Ill.).

[4] = Toxicity 2: 25 mg/kg daily IP for 14 days, blood count, serum chemistry, histology; assay type: in vivo, mice; conditions: for ALBUMIN / ALP / ALT / AST / BASOPHILS / BUN / CALCIUM / CHLORIDE / CHOLESTEROL / CK / CREATININE / DIRECT BILIRUBIN / EOSINOPHILS / GGT / GLOBULIN / GLUCOSE / HEMATOCRIT / HEMOGLOBIN / INDIRECT BILIRUBIN / LYMPHOCYTES / MONOCYTES / NEUTROPHILS / PHOSPHORUS / PLATELETS / RBC / SODIUM / TOTAL BILIRUBIN / TOTAL PROTEIN / WBC: 25 mg/kg IP daily 14 days
Text: Brain, heart, lung, liver, kidney, bowel, spleen, thymus and bone marrow tissues were examined.

[5] = system: cell cycle; test: BrdU incorporation - DAPI staining cell cycle flow cytometry; assay type: cell-based; conditions: increasing concentrations
Experimental: Cell proliferation was examined using the CFSE dilution assay by flow cytometry on viable cells at 48, 72 and 96 h. […] Trypan blue exclusion and apoptosis assessed by Annexin V^+ DAPI^− flow cytometry was measured every 48 hr for a period of 14 days.
To determine cell-cycle distribution, cells were analyzed by flow cytometry using pulse-BrdU (bromodeoxyuridine) incorporation with the APC BrdU Flow Kit (BD Pharmingen, San Jose, Calif.).

With COCCOc1nc(-c2ccc(Cl)c(Cl)c2)n(-c2ccc(NC(=O)CCl)cc2)n1 [MI-2] the GI25 concentrations ([1]; 48 hr) was “high nanomolar range”, the “suppression of cell proliferation, ABC-DLBCL vs GCB-DLBCL cell lines” value ([1]; 48 hr after a single dose, increasing concentrations) was “significant selective dose-dependent suppression of ABC-DLBCL cells” and the GI50 ([2]; TMD8, read-out: GI50 concentration) was 500 nM. For the same molecule, the GI50 ([2]; TMD8, single dose, 48 hr, read-out: GI50) was 500 nM, the “MALT1-mediated cleavage of CYLD” value ([3]; HBL-1, increasing concentrations, 24 hr) was “dose-dependent decrease in MALT1-mediated cleavage” and the “inhibition of MALT1 cleavage of CYLD” value ([3]; analogs 5 μM for 8 hr, Z-VRPR-FMK 50 μM as positive control) was “most potent compound”. It also gave an ALBUMIN ([4]; d14) of 3.12 g/dL, an ALP ([4]; d14) of 83 U/L and an ALT ([4]; d14) of 25 U/L. The AST ([4]; d14) was 70 U/L, the BASOPHILS ([4]; d14) was 0.01 K/μL and the BUN ([4]; d14) was 23.4 mg/dL. It also gave a CALCIUM ([4]; d14) of 10.88 mg/dL, a CHLORIDE ([4]; d14) of 108.4 mEq/L and a CHOLESTEROL ([4]; d14) of 85.4 mg/dL. For the same molecule, the CK ([4]; d14) was 202.8 U/L, the CREATININE ([4]; d14) was 0.22 mg/dL and the “DIRECT BILIRUBIN” value ([4]; d14) was 0.10 mg/dL. It also gave an EOSINOPHILS ([4]; d14) of 0.03 K/μL, a GGT ([4]; d14) of 0 U/L and a GLOBULIN ([4]; d14) of 2.20 g/dL. The GLUCOSE ([4]; d14) was 313.8 mg/dL, the HEMATOCRIT ([4]; d14) was 40.86% and the HEMOGLOBIN ([4]; d14) was 12.94 g/dL. The “INDIRECT BILIRUBIN” value ([4]; d14) was 0.08 mg/dL, the LYMPHOCYTES ([4]; d14) was 6.29 K/μL and the MONOCYTES ([4]; d14) was 0.32 K/μL. It also gave an NEUTROPHILS ([4]; d14) of 1.18 K/μL, a PHOSPHORUS ([4]; d14) of 9.46 mg/dL and a PLATELETS ([4]; d14) of 981 K/μL. The RBC ([4]; d14) was 8.60 M/μL, the SODIUM ([4]; d14) was 152.8 mEq/L and the “TOTAL BILIRUBIN” value ([4]; d14) was 0.180 mg/dL. The “TOTAL PROTEIN” value ([4]; d14) was 5.32 g/dL, the WBC ([4]; d14) was 7.83 K/μL and the ALBUMIN ([4]; d24 (10-day washout)) was 3.15 g/dL. For the same molecule, the ALP ([4]; d24 (10-day washout)) was 100 U/L, the ALT ([4]; d24 (10-day washout)) was 23 U/L and the AST ([4]; d24 (10-day washout)) was 49.5 U/L. For the same molecule, the BASOPHILS ([4]; d24 (10-day washout)) was 0.04 K/μL, the BUN ([4]; d24 (10-day washout)) was 27.0 mg/dL and the CALCIUM ([4]; d24 (10-day washout)) was 10.80 mg/dL. For the same molecule, the CHLORIDE ([4]; d24 (10-day washout)) was 106.7 mEq/L, the CHOLESTEROL ([4]; d24 (10-day washout)) was 91.75 mg/dL and the CK ([4]; d24 (10-day washout)) was 119.5 U/L. For the same molecule, the CREATININE ([4]; d24 (10-day washout)) was 0.20 mg/dL, the “DIRECT BILIRUBIN” value ([4]; d24 (10-day washout)) was 0.10 mg/dL and the EOSINOPHILS ([4]; d24 (10-day washout)) was 0.11 K/μL. The GGT ([4]; d24 (10-day washout)) was 0 U/L, the GLOBULIN ([4]; d24 (10-day washout)) was 2.15 g/dL and the GLUCOSE ([4]; d24 (10-day washout)) was 288.5 mg/dL. The HEMATOCRIT ([4]; d24 (10-day washout)) was 45.02%, the HEMOGLOBIN ([4]; d24 (10-day washout)) was 13.55 g/dL and the “INDIRECT BILIRUBIN” value ([4]; d24 (10-day washout)) was 0.07 mg/dL. The LYMPHOCYTES ([4]; d24 (10-day washout)) was 6.76 K/μL, the MONOCYTES ([4]; d24 (10-day washout)) was 0.27 K/μL and the NEUTROPHILS ([4]; d24 (10-day washout)) was 1.85 K/μL. It also gave a PHOSPHORUS ([4]; d24 (10-day washout)) of 9.65 mg/dL, a PLATELETS ([4]; d24 (10-day washout)) of 1275 K/μL and an RBC ([4]; d24 (10-day washout)) of 9.38 M/μL. For the same molecule, the SODIUM ([4]; d24 (10-day washout)) was 153 mEq/L, the “TOTAL BILIRUBIN” value ([4]; d24 (10-day washout)) was 0.175 mg/dL and the “TOTAL PROTEIN” value ([4]; d24 (10-day washout)) was 5.30 g/dL. For the same molecule, the WBC ([4]; d24 (10-day washout)) was 9.03 K/μL, the bone marrow histology ([4]; daily IP 25 mg/kg over 14 days) was “normocellular with trilineage maturing hematopoiesis” and the “complete peripheral blood counts, biochemistry and liver function tests” value ([4]; daily IP 25 mg/kg over 14 days) was “normal”. For the same molecule, the “toxic effects, weight loss, tissue damage” value ([4]; daily IP 25 mg/kg over 14 days, cumulative 350 mg/kg) was “No toxic effects or other indicators of sickness” and the cell cycle distribution [5] was “dose-dependent decrease in S phase”.
